Test results taken from patent publication US6730293B1, “Compositions and methods for treating inflammatory diseases of the skin” (CellGate, Inc., priority 1999, dated 2004).
Peptide text beside a SMILES is read from it. * marks the point of attachment. FITC = O=C1OC2(c3ccc(O)cc3Oc3cc(O)ccc32)c2ccc(NC(=S)*)cc21; Ahx = NCCCCCC(=O)O

Experiments:
[1] = test system: Jurkat cells; assay: FACS cellular uptake assay of fluorescently labeled peptides and peptoids; format: cell-based, human; conditions: for cellular uptake compared with Tat49-57: 23° C., 2% FCS; for additional loss of intracellular fluorescence from the one amino acid truncated analogs / loss of intracellular fluorescence compared to the parent sequence (Tat49-57): 15 min at 23° C.
Description: Cellular Uptake Assay. […] The accuracy of this method for determining concentration was established by weighing selected samples and dissolving them in a known amount of PBS buffer. The concentrations determined by UV spectroscopy correlated with the amounts weighed out manually. Jurkat cells (human T cell line), murine B cells (CH27), or human PBL cells were grown in 10% fetal calf serum and DMEM and each of these were used for cellular uptake experiments. […] The microtiter plates were centrifuged and the cells were isolated, washed with cold PBS (3×250 μL), incubated with 0.05% trypsin/0.53 mM EDTA at 37° C. for 5 min, washed with cold PBS, and resuspended in PBS containing 0.1% propidium iodide. The cells were analyzed using fluorescent flow cytometry (FACScan, Becton Dickinson) and cells staining with propidium iodide were excluded from the analysis. The data presented is the mean fluorescent signal for the 5000 cells collected.
Inhibition of Cellular Uptake with Sodium Azide. The assays were performed as previously described with the exception that the cells used were preincubated for 30 min with 0.5% sodium azide in 2% FCS/PBS buffer prior to the addition of fluorescent peptides and the cells were washed with 0.5% sodium azide in PBS buffer. All of the cellular uptake assays were run in parallel in the presence and absence of sodium azide.
To determine the structural requirements for the cellular uptake of short arginine-rich peptides, a series of fluorescently-labeled truncated analogues of Tat49-57 were synthesized using standard solid-phase chemistry. See, e.g., Atherton, E.et al. SOLID-PHASE PEPTIDE […] (IRL: Oxford, Engl. 1989). A fluorescein moiety was attached via an aminohexanoic acid spacer on the amino termini. The ability of these fluorescently labeled peptides to enter Jurkat cells was then analyzed using fluorescent activated cell sorting (FACS) ( ). The peptide constructs tested were Tat49-57 (Fl-ahx-[…]): Tat49-56 (Fl-ahx-[…]), Tat49-55 (Fl-ahx-RKKRRQR), Tat50-57 (Fl-ahx-[…]), and […] (Fl-ahx-KRRQRRR). Differentiation between cell surface binding and internalization was accomplished throughout by running a parallel set of assays in the presence and absence of sodium azide. Because sodium azide inhibits energy-dependent cellular uptake but not cell surface binding, the difference in fluorescence between the two assays provided the amount of fluorescence resulting from internalization.

[2] = test system: Jurkat cells; assay: Cellular uptake kinetics assay (Michaelis-Menton); format: cell-based, human; conditions: for Vmax: Jurkat cells, 30, 60, 120, 240 seconds; for rate of cell entry, fold faster than Tat47-59: from Km values; for Km values, fold greater than that found for Tat49-57: discussion
Description: Cellular Uptake Kinetics Assay. […] The reactions were quenched by diluting the samples into 2% FCS/PBS (5 mL). The assays were then worked up and analyzed by fluorescent flow cytometry as previously described.

[3] = test system: skin of nude mice; assay: Penetration of taxol-biotinylated D-arginine conjugates into skin of nude mice; format: in vivo; conditions: back of nude mice, 1 mM-100 μM in PBS, 30, 60, 120 minutes
Description: Slides were analyzed by fluorescent microscopy.

N=C(N)NCCC[C@@H](NC(=O)[C@@H](CCCCN)NC(=O)[C@@H](CCCCN)NC(=O)[C@@H](CCCNC(=N)N)NC(=O)[C@@H](CCCNC(=N)N)NC(=O)[C@@H](CCC(N)=O)NC(=O)[C@@H](CCCNC(=N)N)NC(=O)[C@@H](CCCNC(=N)N)NC(=O)[C@@H](CCCNC(=N)N)NC(=O)CCCCCNC(=S)Nc1ccc2c(c1)C(=O)OC21c2ccc(O)cc2Oc2cc(O)ccc21)C(N)=O [d-Tat57-49, Fl-ahx-rrrqrrkkr]
cellular uptake compared with Tat49-57 [1]: more effective at entering Jurkat cells then Tat49-57

N=C(N)NCCC[C@H](NC(=O)[C@H](CCCNC(=N)N)NC(=O)[C@H](CCCNC(=N)N)NC(=O)[C@H](CCC(N)=O)NC(=O)[C@H](CCCNC(=N)N)NC(=O)[C@H](CCCNC(=N)N)NC(=O)[C@H](CCCCN)NC(=O)[C@H](CCCCN)NC(=O)[C@H](CCCNC(=N)N)NC(=O)CCCCCNC(=S)Nc1ccc2c(c1)C(=O)OC21c2ccc(O)cc2Oc2cc(O)ccc21)C(N)=O [Tat49-57, reference compound]
cellular uptake compared with Tat49-57 [1]: between that of R6 and R7
Vmax [2]: 0.38

N=C(N)NCCC[C@H](NC(=O)[C@H](CCC(N)=O)NC(=O)[C@H](CCCNC(=N)N)NC(=O)[C@H](CCCNC(=N)N)NC(=O)[C@H](CCCCN)NC(=O)[C@H](CCCCN)NC(=O)[C@H](CCCNC(=N)N)NC(=O)CCCCCNC(=S)Nc1ccc2c(c1)C(=O)OC21c2ccc(O)cc2Oc2cc(O)ccc21)C(N)=O [Tat49-55, Fl-ahx-RKKRRQR] ({FITC-Ahx}-RKKRRQR-NH2)
additional loss of intracellular fluorescence from the one amino acid truncated analogs [1]: 60%

N=C(N)NCCC[C@H](NC(=O)[C@H](CCCCN)NC(=O)[C@H](CCCCN)NC(=O)[C@H](CCCNC(=N)N)NC(=O)[C@H](CCCNC(=N)N)NC(=O)[C@H](CCC(N)=O)NC(=O)[C@H](CCCNC(=N)N)NC(=O)[C@H](CCCNC(=N)N)NC(=O)[C@H](CCCNC(=N)N)NC(=O)CCCCCNC(=S)Nc1ccc2c(c1)C(=O)OC21c2ccc(O)cc2Oc2cc(O)ccc21)C(N)=O [Tat57-49]
cellular uptake compared with Tat49-57 [1]: more effective at entering Jurkat cells then Tat49-57

CC(=O)O[C@H]1C(=O)[C@@]2(C)[C@H]([C@H](OC(=O)c3ccccc3)[C@]3(O)C[C@H](OC(=O)[C@H](OC(=O)NCCCC[C@H](NC(=O)[C@@H](CCCNC(=N)N)NC(=O)[C@@H](CCCNC(=N)N)NC(=O)[C@@H](CCCNC(=N)N)NC(=O)[C@@H](CCCNC(=N)N)NC(=O)[C@@H](CCCNC(=N)N)NC(=O)CCCCCNC(=O)CCCC[C@@H]4SC[C@@H]5NC(=O)N[C@@H]54)C(N)=O)[C@@H](NC(=O)c4ccccc4)c4ccccc4)C(C)=C1C3(C)C)[C@]1(OC(C)=O)CO[C@@H]1C[C@@H]2O [B-aca-r5-K-taxol]
penetration into skin (fluorescent streptavidin staining) [3]: very little uptake

C[C@H](NC(=O)[C@H](CCCNC(=N)N)NC(=O)[C@H](CCCNC(=N)N)NC(=O)[C@H](CCCCN)NC(=O)[C@H](CCCCN)NC(=O)[C@H](CCCNC(=N)N)NC(=O)CCCCCNC(=S)Nc1ccc2c(c1)C(=O)OC21c2ccc(O)cc2Oc2cc(O)ccc21)C(=O)N[C@@H](CCCNC(=N)N)C(=O)N[C@@H](CCCNC(=N)N)C(=O)N[C@@H](CCCNC(=N)N)C(N)=O [A-54] ({FITC-Ahx}-RKKRRARRR-NH2)
loss of cellular uptake on alanine substitution of Tat49-57 ([1]; 12 min at 23° C.): modest decrease

N=C(N)NCCC[C@H](NC(=O)[C@H](CCCNC(=N)N)NC(=O)[C@H](CCC(N)=O)NC(=O)[C@H](CCCNC(=N)N)NC(=O)[C@H](CCCNC(=N)N)NC(=O)[C@H](CCCCN)NC(=O)[C@H](CCCCN)NC(=O)[C@H](CCCNC(=N)N)NC(=O)CCCCCNC(=S)Nc1ccc2c(c1)C(=O)OC21c2ccc(O)cc2Oc2cc(O)ccc21)C(N)=O [Tat49-56] ({FITC-Ahx}-RKKRRQRR-NH2)
loss of intracellular fluorescence compared to the parent sequence (Tat49-57) [1]: 80%

N=C(N)NCCC[C@@H](NC(=O)[C@@H](CCCNC(=N)N)NC(=O)[C@@H](CCCNC(=N)N)NC(=O)[C@@H](CCC(N)=O)NC(=O)[C@@H](CCCNC(=N)N)NC(=O)[C@@H](CCCNC(=N)N)NC(=O)[C@@H](CCCCN)NC(=O)[C@@H](CCCCN)NC(=O)[C@@H](CCCNC(=N)N)NC(=O)CCCCCNC(=S)Nc1ccc2c(c1)C(=O)OC21c2ccc(O)cc2Oc2cc(O)ccc21)C(N)=O [d-Tat49-57, Fl-ahx-rkkrrqrrr]
cellular uptake compared with Tat49-57 [1]: more effective at entering Jurkat cells then Tat49-57

CC(=O)O[C@H]1C(=O)[C@@]2(C)[C@H]([C@H](OC(=O)c3ccccc3)[C@]3(O)C[C@H](OC(=O)[C@H](OC(=O)NCCCC[C@H](NC(=O)[C@@H](CCCNC(=N)N)NC(=O)[C@@H](CCCNC(=N)N)NC(=O)[C@@H](CCCNC(=N)N)NC(=O)[C@@H](CCCNC(=N)N)NC(=O)[C@@H](CCCNC(=N)N)NC(=O)[C@@H](CCCNC(=N)N)NC(=O)[C@@H](CCCNC(=N)N)NC(=O)[C@@H](CCCNC(=N)N)NC(=O)[C@@H](CCCNC(=N)N)NC(=O)CCCCCNC(=O)CCCC[C@@H]4SC[C@@H]5NC(=O)N[C@@H]54)C(N)=O)[C@@H](NC(=O)c4ccccc4)c4ccccc4)C(C)=C1C3(C)C)[C@]1(OC(C)=O)CO[C@@H]1C[C@@H]2O [B-aca-r9-K-taxol]
penetration into skin (fluorescent streptavidin staining) [3]: effectively entered into and across the epidermis and into the dermis

N=C(N)NCCC[C@H](NC(=O)[C@H](CCCNC(=N)N)NC(=O)[C@H](CCCNC(=N)N)NC(=O)[C@H](CCC(N)=O)NC(=O)[C@H](CCCNC(=N)N)NC(=O)[C@H](CCCNC(=N)N)NC(=O)[C@H](CCCCN)NC(=O)CCCCCNC(=S)Nc1ccc2c(c1)C(=O)OC21c2ccc(O)cc2Oc2cc(O)ccc21)C(N)=O [Tat51-57, Fl-ahx-KRRQRRR] ({FITC-Ahx}-KRRQRRR-NH2)
additional loss of intracellular fluorescence from the one amino acid truncated analogs [1]: did not further diminish the amount of internalization

N=C(N)NCCC[C@H](NC(=O)[C@H](CCCNC(=N)N)NC(=O)[C@H](CCCNC(=N)N)NC(=O)[C@H](CCC(N)=O)NC(=O)[C@H](CCCNC(=N)N)NC(=O)[C@H](CCCNC(=N)N)NC(=O)[C@H](CCCCN)NC(=O)[C@H](CCCCN)NC(=O)CCCCCNC(=S)Nc1ccc2c(c1)C(=O)OC21c2ccc(O)cc2Oc2cc(O)ccc21)C(N)=O [Tat50-57] ({FITC-Ahx}-KKRRQRRR-NH2)
loss of intracellular fluorescence compared to the parent sequence (Tat49-57) [1]: 80%

CC[C@H](C)[C@H](NC(=O)[C@H](CCCCN)NC(=O)[C@@H](NC(=O)[C@H](CCC(N)=O)NC(=O)[C@H](CCCNC(=N)N)NC(=O)CCCCCNC(=S)Nc1ccc2c(c1)C(=O)OC21c2ccc(O)cc2Oc2cc(O)ccc21)[C@@H](C)CC)C(=O)N[C@@H](Cc1c[nH]c2ccccc12)C(=O)N[C@@H](Cc1ccccc1)C(=O)N[C@@H](CCC(N)=O)C(=O)N[C@@H](CC(N)=O)C(=O)N[C@@H](CCCNC(=N)N)C(=O)N[C@@H](CCCNC(=N)N)C(=O)N[C@@H](CCSC)C(=O)N[C@@H](CCCCN)C(=O)N[C@@H](Cc1c[nH]c2ccccc12)C(=O)N[C@@H](CCCCN)C(=O)N[C@@H](CCCCN)C(N)=O [Antennapedia43-58, reference compound]
Vmax [2]: 0.41
rate of cell entry, fold faster than Tat47-59 [2]: approximately 2 fold

N=C(N)NCCC[C@@H](NC(=O)[C@@H](CCCNC(=N)N)NC(=O)[C@@H](CCCNC(=N)N)NC(=O)[C@@H](CCCNC(=N)N)NC(=O)[C@@H](CCCNC(=N)N)NC(=O)[C@@H](CCCNC(=N)N)NC(=O)[C@@H](CCCNC(=N)N)NC(=O)[C@@H](CCCNC(=N)N)NC(=O)[C@@H](CCCNC(=N)N)NC(=O)CCCCCNC(=S)Nc1ccc2c(c1)C(=O)OC21c2ccc(O)cc2Oc2cc(O)ccc21)C(N)=O (single isomer, unassigned) [R9]
cellular uptake of peptoids compared with d-arginine oligomers / other peptoids ([1]; 4 min at 23° C.): comparable to N-btg9
relative order of uptake ([1]; 4 min at 23° C.): N-hxg9 (6 methylene)>N-btg9 (4 methylene)>r9 (3 methylene)>N-arg9 (3 methylene)>N-etg9 (2 methylene)
Vmax [2]: 0.38
Km values, fold greater than that found for Tat49-57 [2]: 30 fold
Km values, fold greater than that found for Tat49-57 ([2]; listed as r9): 100 fold
rate of cell entry, fold faster than Tat47-59 [2]: ~20 fold
